B1: ThFhb7: de-epoxidase from Thinopyrum ponticum; polypeptide having epoxy group-removing catalytic activity, amino acid sequence SEQ ID NO: 36, gene SEQ ID NO: 1 (protein, listed as Elytrigia ponticum)
chain: MATSASTSTPIIPTAIAGAPPVAGTCCAVAPTLSALALAPLAVPTTTTTVLMPAISSVAASLAVPACALPAAGSAPATLPIIHAPATASLVGASPAIAATLGATTPASGAGALPPPGLLATAVGAAMPGLLIPLSGIAASPGLAATAAPASAVAAAPTAHVGLMVHGLPLAPATAAVTLAGPVAAAGLSSTAALGMVGGAAALMMGSLAAMLGALAALPALAASGPPLLGGAATTAAMIVGGTLAMMAATLPVSGTGGAAACHGAIPGGLHAALALTAGVL

What was measured:
Details in all cases: in vivo
ThFhb7 = tested on: ThFhb7; set-up: species or system Thinopyrum ponticum
F. graminearum [1] = tested on: F. graminearum
F. graminearum [2] = tested on: F. graminearum; remark: listed apart in the source
F. graminearum [3] = tested on: F. graminearum; remark: listed apart in the source

Molecule | conversion into glutathione adducts in transgenic wheat overexpressing ThFhb7 (ThFhb7) | number of diseased spikelets vs control receptor material (F. graminearum [1]) | diseased spot area on leaves vs KN199 (F. graminearum [2]) | disease spot area of ex-vivo leaves vs receptor material (F. graminearum [3])
CC(=O)O[C@@H]1C[C@]2(C)[C@@]3(CO)[C@H](O)C(=O)C(C)=C[C@H]3O[C@H]1[C@@]21CO1 [3-ADON, 3-acetyl-deoxynivalenol] | efficiently catalyzed into glutathione adducts |  |  | 
CC(=O)OC[C@]12[C@H](O)C(=O)C(C)=C[C@H]1O[C@@H]1[C@H](O)C[C@@]2(C)[C@]12CO2 [15-ADON, 15-acetyl-deoxynivalenol] | efficiently catalyzed into glutathione adducts |  |  | 
CC1=C[C@H]2O[C@@H]3[C@H](O)C[C@](C)([C@@]2(CO)[C@H](O)C1=O)[C@]31CO1 [DON, deoxynivalenol] | efficiently catalyzed into glutathione adducts |  |  | 
CC1=C[C@H]2O[C@@H]3[C@H](O)[C@@H](O)[C@](C)([C@@]2(CO)[C@H](O)C1=O)[C@]31CO1 [NIV, nivalenol] | efficiently catalyzed into glutathione adducts |  |  | 
B1 |  | significantly less | significantly reduced | significantly reduced
